Where “and” joins values, the source holds several entries; their conditions need not be identical. Identical values can stand only once. Toxic doses and inconclusive results are not listed. Rule for the calls: active = survival T/C of 150% or more; inactive = T/C below 125% in these data.
Tested on: BDF1 mice, B16 melanoma ip, median survival T/C
Experiment: NCI In Vivo Anticancer Drug Screen. Data for tumor model B16 Melanoma (intraperitoneal) in B6D2F1 (BDF1) mice
Conditions: endpoint: median survival time, higher = longer survival
Method in brief: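 Values are ratios of treated (T) to vehicle-control (C) measurements of survival or tumor size in tumor-bearing mice.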

[1] = dose: 100.0 mg/kg/injection, schedule: Q04DX003 (ip), vehicle: saline with Tween-80
[2] = dose: 200.0 mg/kg/injection, schedule: Q04DX003 (ip), vehicle: saline with Tween-80
[3] = dose: 400.0 mg/kg/injection, schedule: Q04DX003 (ip), vehicle: saline with Tween-80
[4] = dose: 200.0 mg/kg/injection, schedule: Q01DX009 (ip), vehicle: saline with Tween-80
[5] = dose: 400.0 mg/kg/injection, schedule: Q01DX009 (ip), vehicle: saline with Tween-80
[6] = dose: 100.0 mg/kg/injection, schedule: Q01DX009 (ip), vehicle: saline with Tween-80
[7] = dose: 12.5 mg/kg/injection, schedule: Q01DX009 (ip), vehicle: saline with Tween-80
[8] = dose: 25.0 mg/kg/injection, schedule: Q01DX009 (ip), vehicle: saline with Tween-80

Measured: T/C

OCCOCCN1CCN(CCCN2c3ccccc3Sc3ccc(C(F)(F)F)cc32)CC1
inactive: dose: 0.8 mg/kg/injection, schedule: Q01DX009 (ip), vehicle: saline 106 % of control | dose: 1.6 mg/kg/injection, schedule: Q01DX009 (ip), vehicle: saline 102 % of control | dose: 3.2 mg/kg/injection, schedule: Q01DX009 (ip), vehicle: saline 102 % of control | dose: 6.4 mg/kg/injection, schedule: Q01DX009 (ip), vehicle: saline 105 % of control | dose: 3.1 micrograms/kg/injection, schedule: Q01DX009 (ip), vehicle: saline 108 % of control | dose: 6.2 micrograms/kg/injection, schedule: Q01DX009 (ip), vehicle: saline 111 % of control | dose: 12.5 micrograms/kg/injection, schedule: Q01DX009 (ip), vehicle: saline 123 % of control | dose: 25.0 micrograms/kg/injection, schedule: Q01DX009 (ip), vehicle: saline 111 % of control | dose: 50.0 micrograms/kg/injection, schedule: Q01DX009 (ip), vehicle: saline 109 % of control | dose: 100.0 micrograms/kg/injection, schedule: Q01DX009 (ip), vehicle: saline 110 % of control | dose: 200.0 micrograms/kg/injection, schedule: Q01DX009 (ip), vehicle: saline 110 % of control | dose: 400.0 micrograms/kg/injection, schedule: Q01DX009 (ip), vehicle: saline 116 % of control

NC(=O)c1nc2n(c1N)CCC2
inactive: [1] 102 % of control | [2] 105 % of control | [3] 94 % of control

Cc1ccc2c(c1)C(=O)N(CC[P+](c1ccccc1)(c1ccccc1)c1ccccc1)C2=O
inactive: dose: 0.78 mg/kg/injection, schedule: Q01DX009 (ip), vehicle: Klucel (hydroxypropylcellulose) (HPC) 93 % of control | dose: 1.56 mg/kg/injection, schedule: Q01DX009 (ip), vehicle: Klucel (hydroxypropylcellulose) (HPC) 108 % of control | dose: 3.12 mg/kg/injection, schedule: Q01DX009 (ip), vehicle: Klucel (hydroxypropylcellulose) (HPC) 103 % of control | dose: 6.25 mg/kg/injection, schedule: Q01DX009 (ip), vehicle: Klucel (hydroxypropylcellulose) (HPC) 103 % of control | dose: 12.5 mg/kg/injection, schedule: Q01DX009 (ip), vehicle: Klucel (hydroxypropylcellulose) (HPC) 95 % of control

Clc1cccc(/C=C2\c3cc(Cl)ccc3-c3c(Cl)cc(Cl)cc32)c1
inactive: [4] 100 % of control | [5] 97 % of control | dose: 800.0 mg/kg/injection, schedule: Q01DX009 (ip), vehicle: saline with Tween-80 93 % of control

O=C(OCc1ccccc1)C(=O)OCc1ccccc1
inactive: [6] 121 % of control | [1] 100 % of control | [2] 107 % of control

CCCCC(CCC)(CCN)CCCC
inactive: dose: 1.0 mg/kg/injection, schedule: Q01DX009 (ip), vehicle: saline sonified 102 % of control | dose: 2.0 mg/kg/injection, schedule: Q01DX009 (ip), vehicle: saline sonified 97 % of control | dose: 4.0 mg/kg/injection, schedule: Q01DX009 (ip), vehicle: saline sonified 100 % of control

O=[N+]([O-])c1cc2c(c([N+](=O)[O-])c1)OCOC2
inactive: dose: 200.0 mg/kg/injection, schedule: Q01DX009 (ip), vehicle: Klucel (hydroxypropylcellulose) (HPC) 100 % of control

COC(=O)C1(N)CCCC1
inactive: dose: 6.25 mg/kg/injection, schedule: Q01DX009 (ip), vehicle: saline 105 % of control and 110 % of control | dose: 12.5 mg/kg/injection, schedule: Q01DX009 (ip), vehicle: saline 108 % of control and 109 % of control and 122 % of control | dose: 25.0 mg/kg/injection, schedule: Q01DX009 (ip), vehicle: saline 121 % of control and 123 % of control

Cc1ccc2c(c1)P(=O)(O)c1cc(Cl)ccc1O2
inactive: dose: 86.4 mg/kg/injection, schedule: Q01DX009 (ip), vehicle: water 100 % of control | dose: 144.0 mg/kg/injection, schedule: Q01DX009 (ip), vehicle: water 94 % of control | dose: 240.0 mg/kg/injection, schedule: Q01DX009 (ip), vehicle: water 101 % of control | dose: 259.0 mg/kg/injection, schedule: Q04DX003 (ip), vehicle: water 123 % of control | dose: 400.0 mg/kg/injection, schedule: Q01DX009 (ip), vehicle: water 98 % of control | dose: 432.0 mg/kg/injection, schedule: Q04DX003 (ip), vehicle: water 88 % of control

CCC/C=C/C=C/C1CC(O)C(O)C(=O)C1CO (configuration not stated)
inactive: [7] 102 % of control | [8] 104 % of control | dose: 50.0 mg/kg/injection, schedule: Q01DX009 (ip), vehicle: saline with Tween-80 90 % of control | [6] 95 % of control

CO[C@H]1Nc2c(ccc(C)c2O)C(=O)N2C=C(/C=C/C(N)=O)C[C@@H]12
inactive: dose: 0.05 mg/kg/injection, schedule: Q04DX003 (ip), vehicle: DMSO 111 % of control | dose: 0.06 mg/kg/injection, schedule: Q01DX009 (ip), vehicle: saline with Tween-80 92 % of control | dose: 0.1 mg/kg/injection, schedule: Q04DX003 (ip), vehicle: DMSO 101 % of control | dose: 0.12 mg/kg/injection, schedule: Q01DX009 (ip), vehicle: saline with Tween-80 94 % of control | dose: 0.2 mg/kg/injection, schedule: Q04DX003 (ip), vehicle: DMSO 120 % of control | dose: 0.25 mg/kg/injection, schedule: Q01DX009 (ip), vehicle: saline with Tween-80 97 % of control | dose: 0.4 mg/kg/injection, schedule: Q04DX003 (ip), vehicle: DMSO 112 % of control | dose: 16.5 micrograms/kg/injection, schedule: Q01DX009 (ip), vehicle: saline + alcohol 106 % of control | dose: 25.0 micrograms/kg/injection, schedule: Q01DX009 (ip), vehicle: saline with Tween-80 100 % of control | dose: 25.0 micrograms/kg/injection, schedule: Q04DX003 (ip), vehicle: saline with Tween-80 101 % of control | dose: 33.0 micrograms/kg/injection, schedule: Q01DX009 (ip), vehicle: saline + alcohol 100 % of control | dose: 50.0 micrograms/kg/injection, schedule: Q01DX009 (ip), vehicle: saline with Tween-80 104 % of control | dose: 50.0 micrograms/kg/injection, schedule: Q04DX003 (ip), vehicle: saline with Tween-80 104 % of control | dose: 66.0 micrograms/kg/injection, schedule: Q01DX009 (ip), vehicle: saline + alcohol 107 % of control | dose: 100.0 micrograms/kg/injection, schedule: Q01DX009 (ip), vehicle: saline with Tween-80 96 % of control | dose: 100.0 micrograms/kg/injection, schedule: Q04DX003 (ip), vehicle: saline with Tween-80 111 % of control | dose: 200.0 micrograms/kg/injection, schedule: Q01DX009 (ip), vehicle: saline with Tween-80 95 % of control | dose: 200.0 micrograms/kg/injection, schedule: Q04DX003 (ip), vehicle: saline with Tween-80 107 % of control

C[n+]1c(-c2cccc(OCCOCCOc3cccc(-c4c5cc(N)ccc5c5ccc(N)cc5[n+]4C)c3)c2)c2cc(N)ccc2c2ccc(N)cc21
inactive: dose: 0.5 mg/kg/injection, schedule: Q01DX009 (ip), vehicle: water 110 % of control

C=CC(C)NC(=S)NNC(=S)NC (configuration not stated)
inactive: dose: 25.0 mg/kg/injection, schedule: Q01DX009 (ip), vehicle: saline + alcohol 97 % of control | dose: 50.0 mg/kg/injection, schedule: Q01DX009 (ip), vehicle: saline + alcohol 102 % of control | dose: 100.0 mg/kg/injection, schedule: Q01DX009 (ip), vehicle: saline + alcohol 104 % of control | dose: 200.0 mg/kg/injection, schedule: Q01DX009 (ip), vehicle: saline + alcohol 98 % of control | dose: 400.0 mg/kg/injection, schedule: Q01DX009 (ip), vehicle: saline + alcohol 97 % of control

CC[C@@]1(O)C[C@H](OC2CC(N(C)C)C(O)C(C)O2)c2c(O)c3c(c(O)c2[C@H]1OC1CC(N(C)C)C(O)C(C)O1)C(=O)c1cccc(O)c1C3=O (some centres not stated)
inactive: dose: 31.2 micrograms/kg/injection, schedule: Q01DX009 (ip), vehicle: Klucel (hydroxypropylcellulose) (HPC) 100 % of control | dose: 62.5 micrograms/kg/injection, schedule: Q01DX009 (ip), vehicle: Klucel (hydroxypropylcellulose) (HPC) 89 % of control

CC(Br)C(=O)NC(CO)C(=O)O (configuration not stated)
inactive: [6] 94 % of control | [1] 108 % of control | [4] 99 % of control | [2] 113 % of control | [5] 86 % of control | [3] 108 % of control

CC(C)(CN=Cc1ccccc1[O-])N=Cc1ccccc1[O-].[O]=[V]
inactive: dose: 6.25 mg/kg/injection, schedule: Q01DX009 (ip), vehicle: saline with Tween-80 95 % of control | dose: 6.25 mg/kg/injection, schedule: Q04DX003 (ip), vehicle: saline with Tween-80 113 % of control | [7] 95 % of control | dose: 12.5 mg/kg/injection, schedule: Q04DX003 (ip), vehicle: saline with Tween-80 91 % of control | [8] 92 % of control | dose: 25.0 mg/kg/injection, schedule: Q04DX003 (ip), vehicle: saline with Tween-80 104 % of control

COc1ccc(Nc2c3ccccc3nc3ccccc23)cc1
inactive: [7] 120 % of control

— PubChem BioAssay AID192 (DTP/NCI, 2004)
